Patent publication US12415830B2, “Steroid compound, and use thereof and preparation method therefor” (Chengdu Kanghong Pharmaceutical Co Ltd, priority 2019, dated 2025)

Key:
[1] = target: T1, GABAA1 (α1β2γ2) receptor (Homo sapiens, UniProt P14867+P47870); assay: Patch-clamp electrophysiology on recombinant GABAA1 receptor in HEK293 cells, with 3 μM GABA; assay type: cell-based; details: for Emax at 0.1 µM / Emax at 1 µM / Emax: HEK293; for Emax at 0.1 µM: 0.1 μM compound together with 3 μmol GABA; for Emax at 0.1 µM / Emax at 1 µM: read-out: potency: ratio of the peak current on the GABAA1 receptor to the peak current in 100 μmol GABA; for Emax at 1 µM: 1 μM compound together with 3 μmol GABA; for Emax / EC50: together with 3 μmol GABA; for Emax: relative to peak current in 100 μmol GABA
T1 construct: expressed in transfected cells
Protocol: The present invention applies the two subunits of the recombinant GABAA receptor: α1β2γ2 and α4β3δ to evaluate the potency of the exemplary compounds in vitro by patch-clamp electrophysiology.
Extracellular fluid: 140 mM NaCl, 5 mM CsCl, 2 mM CaCl2·2H2O, 1 mM MgCl2·6H2O, 5 mM HEPES, 10 mM D-Glucose, pH=7.4 (NaOH).
Intracellular fluid: 130 mM CsCl, 0.1 mM CaCl2·H2O, 2 mM MgCl2·6H2O, 1.1 mM EGTA, 5 mM Na2-ATP, 10 mM HEPES, pH=7.2 (CsOH).
The HEK293 cells line stably expressing GABAA (α1β2γ2) receptors was cultured in Dulbecco's Modified Eagle Medium (DMEM) supplemented with 10% fetal bovine serum, 800 μg/mL G418, 200 μg/mL Hygromycin B and 100 μg/mL Zeocin. Cells were grown in a humidified incubator at 37° C. with 5% carbon dioxide.
Before manual patch clamp test, the cells were detached using 0.25%-Trypsin-EDTA solution. Then 8×10^3 cells were plated onto coverslips, and cultured in a 24-well plate (final medium volume: 500 μL) and tested after 18 hours by patch clamp.
Glass pipette (BF 150-86-10, Sutter Instruments) was pulled using a micropipette puller (P97, Sutter Instruments). The glass pipette was manipulated using a micro-manipulator (MP285, Sutter Instruments) under the microscope (IX71, Olympus). After touching the cell, a slight suction was applied to achieve high seal resistance (GQ). Fast capacitance (in pF) compensation was made after achieving high seal, and the membrane was broken. Cell capacitance (in pF) compensation was made from whole-cell capacitance compensation after the whole cell mode was achieved. No leak subtraction was made.
The test and control solutions flowed into a recording chamber mounted on the stage of an inverted microscope via a gravity-fed solution delivery system. During the experiment, solutions were withdrawn from the recording chamber by vacuum aspiration. Each concentration was tested at multiple times. All tests were performed at room temperature.
Whole cell model recorded GABAA1 receptors current experimental protocol was indicated as follows: When sealing, cell was at a holding potential of −70 mV, with gap-free mode to record the peak current. The cell would be applied with 3 μM GABA to active current. After the test articles application for 30 s, each concentration of test articles was applied with 3 μM GABA followed by 2 minutes washout using extracellular solution. Finally, 100 μM GABA was used as a positive control. The data were collected by EPC-10 amplifier and stored in PatchMaster (HEKA) software.
The following criteria are used to determine whether the data is acceptable: • (1) Electrode resistance <5MΩ • (2) Seal resistance >1GΩ • (3) The start of access resistance <15 MΩ • (4) The end of access resistance <15 MΩ • (5) No obvious spontaneous current decay. • (6) No obvious current leakage when the membrane potential is-70 mv. 56.6 Data Analysis
In the detection of GABAA1, the currents of 3 μM GABA and different concentrations of test compounds were respectively normalized to the current of 100 μM GABA
[formula] and then the activation rate corresponding to each concentration was calculated.
[formula] and then the activation rate corresponding to each concentration was calculated. Means, Standard Deviation and Standard Error were calculated for each test group. EC50 value was calculated using nonlinear regression: Y=Bottom+(Top−Bottom)/(1+10^((Log EC50−X)×HillSlope))
To fit data to the concentration-response, EC50 was the concentration giving a half-maximum effect and Hillslope was the Hill coefficient. Curve-fitting and EC50 calculations were performed using Graphpad5.0 software.
Emax is defined as the ratio of the peak current generated on the GABAA1 receptor to the peak current generated only in 100 μmol of GABA and the ratio is multiplied by 100%. The peak current generated on the GABAA1 receptor is that the exemplary compounds act on the GABAA1 receptor together with 3 μmol GABA.

[2] = system: mice; assay: Observation of side effects (gait, mobility, prone behavior) during administration in the elevated plus maze experiment; assay type: in vivo; parameters: key to Gait, Level / mobility, Level / prone behavior, Level: “+” indicates severity; ++: “+” indicates severity; +++: three “+” are the most severe, with time to resume normal action >60 minutes; details: for side effects compared to the positive drug: 3 mg/kg, mice; for Gait, Number / mobility, Number / prone behavior, Number: 10 mice per group
Protocol: Since the drugs which are acting on GABA (A) receptor can produce behavioral anesthesia (side effects), side effects of mice during administration were observed during the course of the elevated plus maze experiment. […] “+” indicates severity, three “+” are the most severe, with time to resume normal action >60 minutes.

T1 sequence (P14867 28-456): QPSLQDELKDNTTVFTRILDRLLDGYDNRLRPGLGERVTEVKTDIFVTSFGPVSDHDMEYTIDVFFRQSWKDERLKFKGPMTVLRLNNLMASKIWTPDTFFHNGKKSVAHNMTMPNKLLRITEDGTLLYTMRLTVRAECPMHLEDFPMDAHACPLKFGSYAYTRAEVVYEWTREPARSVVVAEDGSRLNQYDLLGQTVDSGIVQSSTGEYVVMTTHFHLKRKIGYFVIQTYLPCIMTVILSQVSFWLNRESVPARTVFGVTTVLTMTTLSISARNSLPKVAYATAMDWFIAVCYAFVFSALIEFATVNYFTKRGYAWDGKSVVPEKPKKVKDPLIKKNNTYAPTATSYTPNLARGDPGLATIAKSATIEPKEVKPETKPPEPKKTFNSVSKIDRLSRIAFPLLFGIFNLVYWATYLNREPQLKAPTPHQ
T1 sequence (P47870 26-512): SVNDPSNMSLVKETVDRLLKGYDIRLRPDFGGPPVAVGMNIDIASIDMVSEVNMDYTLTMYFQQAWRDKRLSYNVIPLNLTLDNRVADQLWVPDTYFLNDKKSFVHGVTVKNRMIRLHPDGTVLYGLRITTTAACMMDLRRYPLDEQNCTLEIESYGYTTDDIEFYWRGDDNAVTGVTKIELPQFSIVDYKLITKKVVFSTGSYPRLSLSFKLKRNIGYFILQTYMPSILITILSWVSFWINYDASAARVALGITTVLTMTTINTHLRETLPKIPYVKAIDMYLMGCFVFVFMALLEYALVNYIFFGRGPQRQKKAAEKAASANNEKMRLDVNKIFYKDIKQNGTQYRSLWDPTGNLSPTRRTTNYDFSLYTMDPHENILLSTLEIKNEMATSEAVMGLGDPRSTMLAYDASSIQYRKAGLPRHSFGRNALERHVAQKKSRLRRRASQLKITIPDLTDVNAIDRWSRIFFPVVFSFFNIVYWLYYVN
T1 sequence (P18507 40-475 partner): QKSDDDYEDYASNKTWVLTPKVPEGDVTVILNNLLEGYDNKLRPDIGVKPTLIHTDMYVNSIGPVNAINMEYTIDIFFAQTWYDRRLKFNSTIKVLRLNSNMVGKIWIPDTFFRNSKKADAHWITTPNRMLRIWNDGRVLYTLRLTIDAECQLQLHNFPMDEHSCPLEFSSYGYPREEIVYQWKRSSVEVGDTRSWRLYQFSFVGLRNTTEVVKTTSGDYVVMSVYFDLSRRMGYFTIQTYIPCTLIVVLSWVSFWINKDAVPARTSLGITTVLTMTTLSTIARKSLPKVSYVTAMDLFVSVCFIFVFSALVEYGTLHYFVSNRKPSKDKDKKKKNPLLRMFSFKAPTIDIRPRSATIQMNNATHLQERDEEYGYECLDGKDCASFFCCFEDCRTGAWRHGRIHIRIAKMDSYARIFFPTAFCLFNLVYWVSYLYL

Compound	Emax at 0.1 µM [1] [%]	Emax at 1 µM [1] [%]	Emax [1] [%]	EC50 [1] [nM]	side effects compared to the positive drug [2]	Gait, Number ([2]; 3mg/kg, the first day)	mobility, Number ([2]; 3mg/kg, the first day)	prone behavior, Number ([2]; 3mg/kg, the first day)	Gait, Number ([2]; 3mg/kg, the forth day)	mobility, Number ([2]; 3mg/kg, the forth day)	prone behavior, Number ([2]; 3mg/kg, the forth day)	Gait, Number ([2]; 3mg/kg, the second day)	mobility, Number ([2]; 3mg/kg, the second day)	prone behavior, Number ([2]; 3mg/kg, the second day)	Gait, Level ([2]; 3mg/kg, the third day)	Gait, Number ([2]; 3mg/kg, the third day)	mobility, Number ([2]; 3mg/kg, the third day)	prone behavior, Number ([2]; 3mg/kg, the third day)	Gait, Level ([2]; 3mg/kg, the first day)	mobility, Level ([2]; 3mg/kg, the first day)	other results
C[C@]12CC[C@@H](O)C[C@@H]1CC[C@@H]1[C@@H]2CC[C@]2(C)[C@@H](C(=O)Cn3ncnn3)CCC[C@@H]12 [KH004]	20 to 40	> 80	106	404	less side effects	0	0	0	0	0	0	0	0	0	+	1	0	0			
C[C@@]1(O)CC[C@@]2(C)[C@@H](CC[C@@H]3[C@@H]2CC[C@]2(C)[C@@H](C(=O)Cn4ncnn4)CCC[C@@H]32)C1 [KH022]	0 to 20	40 to 60	93.1	821	less side effects	3	1	0	3	1	0	2	0	0	+	1	0	0	+	++	Gait, Level ([2]; 3mg/kg, the forth day): +; mobility, Level ([2]; 3mg/kg, the forth day): +; Gait, Level ([2]; 3mg/kg, the second day): +
C[C@@]1(O)CC[C@H]2[C@H](CC[C@@H]3[C@@H]2CC[C@]2(C)[C@@H](C(=O)Cn4cc(C#N)cn4)CC[C@@H]32)C1 [The control, reference compound]	0 to 20	20 to 40	84.2			7	3	2	9	5	0	6	0	0	+	8	4	0	++	+++ (three “+” are the most severe, with time to resume normal action >60 minutes)	prone behavior, Level ([2]; 3mg/kg, the first day): +; Gait, Level ([2]; 3mg/kg, the forth day): +; mobility, Level ([2]; 3mg/kg, the forth day): +; Gait, Level ([2]; 3mg/kg, the second day): ++; mobility, Level ([2]; 3mg/kg, the third day): ++
